Assay results as given in patent publication US20260374739A1, “SMALL MOLECULAR WEIGHT CHEMICAL COMPOUND TO ANTAGONIZE EPH-EPHRIN TETRAMERIZATION AND INHIBIT BIDIRECTIONAL SIGNALING” (THE BOARD OF REGENTS OF THE UNIVERSITY OF TEXAS SYSTEM, priority 2022, published 2026).
Several values for one entry are separate records, joined by “and”; a condition that tells them apart may be missing. Identical values can stand only once. Like-named read-outs stand apart in the source and are kept apart here.

Assays:
[1] = molecular target: T1, EphrinB2-EphB2 (Homo sapiens, UniProt P29323); test: Octet 80 sec association/500 sec dissociation, immobilized human EphrinB2-Fc binding to soluble human EphB2-His; details: for EphB2 Inhibition Percent, Inhibition of Association-Dissociation: at 3.2 μM and 580 seconds
T1 construct: soluble human EphB1-His, EphB2-His, and EphB4-His ectodomains; commercially available human EphrinB1-Fc (EB1), EphrinB2-Fc (EB2), and EphrinB3-Fc (EB3) ectodomain proteins; purchased
T1 sequence (P29323 19-543 limits assumed): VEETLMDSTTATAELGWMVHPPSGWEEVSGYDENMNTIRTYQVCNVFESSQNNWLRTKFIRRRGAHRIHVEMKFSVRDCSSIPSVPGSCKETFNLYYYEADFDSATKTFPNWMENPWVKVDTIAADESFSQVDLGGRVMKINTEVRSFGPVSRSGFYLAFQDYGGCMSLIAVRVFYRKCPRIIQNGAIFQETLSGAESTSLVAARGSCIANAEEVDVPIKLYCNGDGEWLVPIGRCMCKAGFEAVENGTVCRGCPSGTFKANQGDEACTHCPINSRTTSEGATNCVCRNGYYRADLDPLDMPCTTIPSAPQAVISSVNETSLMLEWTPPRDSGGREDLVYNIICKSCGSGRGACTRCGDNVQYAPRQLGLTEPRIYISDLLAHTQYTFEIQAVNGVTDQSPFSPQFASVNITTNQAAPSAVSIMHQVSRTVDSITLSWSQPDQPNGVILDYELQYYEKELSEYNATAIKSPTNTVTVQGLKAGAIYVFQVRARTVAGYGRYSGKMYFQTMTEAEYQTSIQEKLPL
In short: (§1)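 EphrinB2-Fc captured on AHC biosensors, then soluble His-tagged EphB ectodomain (25 nM for % inhibition runs) associated 80 s and dissociated 500 s in PBS, 0.05% Tween-20, 1% DMSO ± compound. Compounds tested at 0.1–3.2 μM with a 10 μM max standard; IC50 from AUC of full traces or at 75 s and 135 s.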

[2] = molecular target: T1, EphrinB2-EphB2; test: Octet tetramerization inhibition, immobilized human EphrinB2 binding to 50 nM soluble human EphB2
[3] = molecular target: T2, EphrinB2-EphB1 (Homo sapiens, UniProt P54762); test: Octet 80 sec association/500 sec dissociation, immobilized human EphrinB2-Fc binding to soluble human EphB1-His; details: for % Inhibition: Association + Dissociation (160 sec) / inhibition at 3.2 µM: 25 nM EphB1, 3.2 μM compound, A20-I as max control, 0* = less than 0, no inhibition; for EphB1 Inhibition Percent, Inhibition of Association ONLY: at 3.2 μM and 80 seconds; for EphB1 Inhibition Percent, Inhibition of Association ONLY / EphB1 Inhibition Percent, Inhibition of Association-Dissociation: immobilized human EphrinB2, 25 nM soluble human EphB1; for EphB1 Inhibition Percent, Inhibition of Association-Dissociation: at 3.2 μM and 580 seconds
T2 construct: soluble human EphB1-His, EphB2-His, and EphB4-His ectodomains; commercially available human EphrinB1-Fc (EB1), EphrinB2-Fc (EB2), and EphrinB3-Fc (EB3) ectodomain proteins; purchased
T2 sequence (P54762 18-540 limits assumed): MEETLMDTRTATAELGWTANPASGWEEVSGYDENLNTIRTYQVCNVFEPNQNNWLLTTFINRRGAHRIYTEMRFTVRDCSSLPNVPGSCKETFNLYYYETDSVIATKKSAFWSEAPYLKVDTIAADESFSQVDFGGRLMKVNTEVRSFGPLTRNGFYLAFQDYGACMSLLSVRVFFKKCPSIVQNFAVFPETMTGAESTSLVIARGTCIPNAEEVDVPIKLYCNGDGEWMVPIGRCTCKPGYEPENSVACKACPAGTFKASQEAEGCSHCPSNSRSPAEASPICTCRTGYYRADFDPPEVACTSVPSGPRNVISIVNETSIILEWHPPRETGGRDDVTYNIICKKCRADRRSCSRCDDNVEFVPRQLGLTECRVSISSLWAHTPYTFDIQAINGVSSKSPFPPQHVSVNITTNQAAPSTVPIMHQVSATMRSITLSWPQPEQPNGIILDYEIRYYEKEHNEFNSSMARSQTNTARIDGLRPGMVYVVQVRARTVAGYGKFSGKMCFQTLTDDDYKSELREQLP
In short: as §1

[4] = EphB2, 25 nM EphB2, 3.2 μM compound, A20-I as max control, 0* = less than 0, no inhibition
[5] = EphB2, 25 nM EphB2, 3.2 μM compound, A20-I as max control, 0* = less than 0, no inhibition, read-out: % Inhibition: Association + Dissociation (160 sec)
[6] = EphB2, 25 nM EphB2, 3.2 μM compound, A20-I as max control, 0* = less than 0, no inhibition, read-out: % Inhibition: Association ONLY (80 sec)
[7] = Absolute AUC/IC50, Table A, EphrinB2-EphB2
[8] = Absolute Association IC50 (300 sec), Table A, EphrinB2-EphB2
[9] = Absolute Dissociation IC50 (450 sec), Table A, EphrinB2-EphB2
[10] = Relative AUC/IC50, Table A, EphrinB2-EphB2, compound 7: association only
[11] = Relative Association IC50 (300 sec), Table A, EphrinB2-EphB2
[12] = Relative Dissociation IC50 (450 sec), Table A, EphrinB2-EphB2
[13] = tetramerization inhibitor IC50 (relative), association step, surmountable tetramer
[14] = EphB1, read-out: % Inhibition: Association + Dissociation (160 sec)
[15] = EphB1, read-out: % Inhibition: Association ONLY (80 sec)
[16] = immobilized human EphrinB2, 25 nM soluble human EphB2

## Oc1c(I)cc(CN2CCOCC2)c2cccnc12 [Compound 7, 7-iodo-5-(morpholinomethyl)quinolin-8-ol]
[1]; [4]
  % Inhibition: Association + Dissociation (160 sec): 80.6% and 77.6% and 74.3%
  % Inhibition: Association ONLY (80 sec): 66.1% and 61.2% and 56.7%
[1]; [5]
  inhibition at 3.2 µM: 75.3%
[1]; [6]
  inhibition at 3.2 µM: 59.6%
[1]; EphB2, 10 μM 2×HCl salt, read-out: % Inhibited (AUC), Association
  inhibition: 61.8%
[1]; EphB2, Association (75″), read-out: Absolute IC50
  IC50: 1660 nM
[1]; EphB2, Association (75″), read-out: Relative IC50
  IC50: 1200 nM
[1]; EphB2, Association (AUC), read-out: Absolute IC50
  IC50: 2240 nM
[1]; EphB2, Association (AUC), read-out: Relative IC50
  IC50: 1150 nM
[1]; EphB2, Dissociation (135″), read-out: Absolute IC50
  IC50: 410 nM
[1]; EphB2, Dissociation (135″), read-out: Relative IC50
  IC50: 340 nM
[1]; EphB2, Full AUC, read-out: Absolute IC50
  IC50: 240 nM
[1]; EphB2, Full AUC, read-out: Relative IC50
  IC50: 190 nM
[1]; EphB2, first 160 sec, 10 μM 2×HCl salt, read-out: % Inhibited (AUC), Association + Dissociation
  inhibition: 76.5%
[1]; EphB2, highest dose, typically 3.2 μM, read-out: Association (% Inhibited (AUC))
  inhibition: 56.4%
[1]; EphB2, highest dose, typically 3.2 μM, read-out: Association + Dissociation (% Inhibited (AUC))
  inhibition: 74.7%
[2]
  tetramerization inhibitor activity: stronger tetramerization inhibitor compared to A20
[2]; [7]
  IC50: > 1600 nM
[2]; [8]
  IC50: 1500 nM
[2]; [9]
  IC50: > 1600 nM
[2]; [10]
  IC50: 440 nM
[2]; [11]
  IC50: 890 nM
[2]; [12]
  IC50: 1070 nM
[2]; [13]
  IC50: ~600 nM
[3]; EphB1, 0-160 sec, 50 nM, 10 μM compound, Table 4
  % Inhibited (AUC), Association + Dissociation: 38.4%
[3]; EphB1
  % Inhibition: Association + Dissociation (160 sec): 53.1% and 44.3% and 52.4%
[3]; [14]
  inhibition at 3.2 µM: 46.8%
[3]; [15]
  inhibition at 3.2 µM: 29.5%
[3]; EphB1, 50 nM, 10 μM compound, Table 4
  % Inhibited (AUC), Association: 25.0%
[3]; EphB1, 10 μM 2×HCl salt, read-out: % Inhibited (AUC), Association
  inhibition: 36.6%
[3]; EphB1, Association (75″), read-out: Absolute IC50
  IC50: > 3200 nM
[3]; EphB1, Association (75″), read-out: Relative IC50
  IC50: 850 nM
[3]; EphB1, Association (AUC), read-out: Absolute IC50
  IC50: > 3200 nM
[3]; EphB1, Association (AUC), read-out: Relative IC50
  IC50: 980 nM
[3]; EphB1, Dissociation (135″), read-out: Absolute IC50
  IC50: 850 nM
[3]; EphB1, Dissociation (135″), read-out: Relative IC50
  IC50: 440 nM
[3]; EphB1, Full AUC, read-out: Absolute IC50
  IC50: 1480 nM
[3]; EphB1, Full AUC, read-out: Relative IC50
  IC50: 240 nM
[3]; EphB1, first 160 sec, 10 μM 2×HCl salt, read-out: % Inhibited (AUC), Association + Dissociation
  inhibition: 48.5%
[3]; EphB1, highest dose, typically 3.2 μM, read-out: Association (% Inhibited (AUC))
  inhibition: 32.6%
[3]; EphB1, highest dose, typically 3.2 μM, read-out: Association + Dissociation (% Inhibited (AUC))
  inhibition: 49.4%

## Oc1c(Br)cc(CN2CCN(Cc3ccc(Br)cc3)CC2)c2cccnc12 [Compound 44, 7-bromo-5-((4-(4-bromobenzyl)piperazin-1-yl)methyl)quinolin-8-ol]
[1]; [5]
  inhibition at 3.2 µM: 77.1%
[1]; [6]
  inhibition at 3.2 µM: 62.1%
[2]
  tetramerization inhibitor activity: appears promising
[2]; [7]
  IC50: > 3200 nM
[2]; [8]
  IC50: > 3200 nM
[2]; [9]
  IC50: 380 nM
[2]; [11]
  IC50: 280 nM
[2]; [12]
  IC50: 300 nM
[3]; [14]
  inhibition at 3.2 µM: 49.9%
[3]; [15]
  inhibition at 3.2 µM: 37.3%

## O=[N+]([O-])c1cc(CN2CCOCC2)c2cccnc2c1O [Compound 9, 5-(morpholinomethyl)-7-nitroquinolin-8-ol]
[1]; EphB2, 25 nM EphB2, 3.2 μM compound, A20-I as max control, 0* = less than 0, no inhibition, listed as A19-NO2 (A)
  % Inhibition: Association + Dissociation (160 sec): 58.0% and 38.9%
[1]; association step, general
  inhibition of EphB2-EphrinB2 binding: 40%
[1]; [16]
  EphB2 Inhibition Percent, Inhibition of Association-Dissociation: 58.0% (2×) and 38.9%
[2]
  tetramerization inhibitor activity: weak, essentially inactive
[2]; [7]
  IC50: > 3200 nM
[2]; [8]
  IC50: > 3200 nM
[2]; [9]
  IC50: > 3200 nM
[2]; [10]
  IC50: > 3200 nM
[2]; [11]
  IC50: > 3200 nM
[2]; [12]
  IC50: > 3200 nM
[2]; [13]
  IC50: > 3000 nM
[3]; EphB1, listed as A19-NO2 (A)
  % Inhibition: Association + Dissociation (160 sec): 36.9% and 29.8%
[3]; association step, general
  inhibition of EphB1-EphrinB2 binding: 25%
[3]
  EphB1 Inhibition Percent, Inhibition of Association ONLY: 22.5% and 16.1% and 15.7%
  EphB1 Inhibition Percent, Inhibition of Association-Dissociation: 36.9% and 29.8% and 22.8%

## O=S1(=O)CCN(Cc2ccc(O)c3ncccc23)CC1 [Compound 15, 4-((8-hydroxyquinolin-1-ium-5-yl)methyl)thiomorpholin-4-ium 1,1-dioxide chloride]
[1]; at 3.2 μM and 80 seconds, immobilized human EphrinB2, 25 nM soluble human EphB2
  EphB2 Inhibition Percent, Inhibition of Association ONLY: 33.8%
[1]; [16]
  EphB2 Inhibition Percent, Inhibition of Association-Dissociation: 46.4%
[2]; [7]
  IC50: > 1600 nM
[2]; [8]
  IC50: > 1600 nM
[2]; [9]
  IC50: > 1600 nM
[2]; [10]
  IC50: 620 nM
[2]; [11]
  IC50: > 1600 nM
[2]; [12]
  IC50: 1150 nM
[3]
  EphB1 Inhibition Percent, Inhibition of Association ONLY: 16.8%
  EphB1 Inhibition Percent, Inhibition of Association-Dissociation: 28.6%
